Assays:
Sa(H30N, F98Y) DHFR = Sa(H30N, F98Y) DHFR (Staphylococcus aureus, UniProt P0A017, F99Y/H31N); assay: DHFR enzyme inhibition; format: biochemical; conditions: Ki ratio mutant vs wild-type
Sa43300 = assay: Mutant selection / mutational frequency at 6x MIC; format: cell-based, Staphylococcus aureus; conditions: progenitor Sa43300, selection at 6x MIC
Sa43300(H149R) = assay: Mutant selection / mutational frequency at 6x MIC; format: cell-based, Staphylococcus aureus; conditions: progenitor Sa(H149R), selection at 6x MIC
S. aureus 43300 = conditions: cited from earlier work
Sa43300(F98Y) = assay: Mutant selection / mutational frequency at 6x MIC; format: cell-based, Staphylococcus aureus; conditions: progenitor Sa(F98Y), selection at 6x MIC

| SMILES | loss in affinity for Sa (F98Y, H30N) double mutant enzyme relative to wild-type (Sa(H30N, F98Y) DHFR) | Mutational Frequency, DHFR mutation F98Y (Sa43300) | Mutational Frequency, DHFR mutation H30N (Sa43300) | Mutational Frequency, DHFR mutation H149R (Sa43300) | Mutational Frequency, DHFR mutation F98Y/H149R (Sa43300(H149R)) | mutation frequencies (mutants F98Y and F98I in the DHFR gene) (S. aureus 43300) | Mutational Frequency, DHFR mutation F98Y/H30N (Sa43300(F98Y)) |
| --- | --- | --- | --- | --- | --- | --- | --- |
| CCc1nc(N)nc(N)c1C#CC(C)c1cc2c(c(-c3ccncc3)c1)OCO2 (centres unmarked) [Compound 2] | 180 to 300 fold | – | – | – | – | – | – |
| CCc1nc(N)nc(N)c1C#C[C@H](C)c1cc2c(c(-c3ccncc3)c1)OCO2 [Compound 7] | 180 to 300 fold | – | – | – | – | – | – |
| CCc1nc(N)nc(N)c1C#CC(C)c1cc(OC)cc(-c2ccncc2)c1 (centres unmarked) [Compound 1] | – | 3.11 x 10^−11 | 4.67 x 10^−11 | 1.65 x 10^−10 | 1.23x10^−11 | 10^−10 | 8.2 x 10^−12 |
